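Assay format: 96-well plates, 48-hour exposure. TGI is the concentration that stops growth completely.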
Key:
Test in all cases: inhibition of tumour cell growth, NCI panel, 48 h
PC-3 prostate = tested on: PC-3 prostate
EKVX NSCLC = tested on: EKVX NSCLC
BT-549 breast = tested on: BT-549 breast
NCI-H23 lung = tested on: NCI-H23 lung
TK-10 renal = tested on: TK-10 renal
SK-MEL-28 melanoma = tested on: SK-MEL-28 melanoma
HOP-62 NSCLC = tested on: HOP-62 NSCLC
RPMI-8226 leukemia = tested on: RPMI-8226 leukemia
MCF7 breast = tested on: MCF7 breast
UACC-62 melanoma = tested on: UACC-62 melanoma
MDA-MB-435 = tested on: MDA-MB-435
HOP-92 NSCLC = tested on: HOP-92 NSCLC
HT29 colon = tested on: HT29 colon
HS 578T breast = tested on: HS 578T breast
A498 renal = tested on: A498 renal
K-562 leukemia = tested on: K-562 leukemia
SK-OV-3 ovarian = tested on: SK-OV-3 ovarian
ACHN renal = tested on: ACHN renal
HCT-116 colon = tested on: HCT-116 colon
SR leukemia = tested on: SR leukemia
786-0 renal = tested on: 786-0 renal
SW-620 colon = tested on: SW-620 colon
SK-MEL-5 melanoma = tested on: SK-MEL-5 melanoma
SK-MEL-2 melanoma = tested on: SK-MEL-2 melanoma
T-47D breast = tested on: T-47D breast
CAKI-1 renal = tested on: CAKI-1 renal
CCRF-CEM leukemia = tested on: CCRF-CEM leukemia
MOLT-4 leukemia = tested on: MOLT-4 leukemia
NCI-H460 lung = tested on: NCI-H460 lung
SF-539 CNS = tested on: SF-539 CNS
NCI/ADR-RES ovarian = tested on: NCI/ADR-RES ovarian
UACC-257 melanoma = tested on: UACC-257 melanoma
OVCAR-4 ovarian = tested on: OVCAR-4 ovarian
HL-60(TB) leukemia = tested on: HL-60(TB) leukemia
SNB-19 CNS = tested on: SNB-19 CNS
SNB-75 CNS = tested on: SNB-75 CNS
M14 melanoma = tested on: M14 melanoma
RXF 393 renal = tested on: RXF 393 renal
KM12 colon = tested on: KM12 colon
DU-145 prostate = tested on: DU-145 prostate
NCI-H522 lung = tested on: NCI-H522 lung
IGROV1 ovarian = tested on: IGROV1 ovarian
MDA-MB-231 breast = tested on: MDA-MB-231 breast
NCI-H226 lung = tested on: NCI-H226 lung
OVCAR-8 ovarian = tested on: OVCAR-8 ovarian
SF-268 CNS = tested on: SF-268 CNS
OVCAR-3 ovarian = tested on: OVCAR-3 ovarian
LOX IMVI melanoma = tested on: LOX IMVI melanoma
UO-31 renal = tested on: UO-31 renal
A549 NSCLC = tested on: A549 NSCLC
MDA-N = tested on: MDA-N
U251 CNS = tested on: U251 CNS
OVCAR-5 ovarian = tested on: OVCAR-5 ovarian
HCC-2998 colon = tested on: HCC-2998 colon
COLO 205 colon = tested on: COLO 205 colon
SN12C renal = tested on: SN12C renal
MALME-3M melanoma = tested on: MALME-3M melanoma
HCT-15 colon = tested on: HCT-15 colon
SF-295 CNS = tested on: SF-295 CNS

Question: What does the source list for Cc1[nH]n(-c2ncc(C(=O)O)c(=O)[nH]2)c(=O)c1CCO?
Answer: TGI (PC-3 prostate): > 100 µM; TGI (EKVX NSCLC): > 100 µM; TGI (BT-549 breast): > 100 µM; TGI (NCI-H23 lung): > 100 µM; TGI (TK-10 renal): > 100 µM; TGI (SK-MEL-28 melanoma): > 100 µM; TGI (HOP-62 NSCLC): > 100 µM; TGI (RPMI-8226 leukemia): > 100 µM; TGI (MCF7 breast): > 100 µM; TGI (UACC-62 melanoma): > 100 µM; TGI (MDA-MB-435): > 100 µM; TGI (HOP-92 NSCLC): > 100 µM; TGI (HT29 colon): > 100 µM; TGI (HS 578T breast): > 100 µM; TGI (A498 renal): > 100 µM; TGI (K-562 leukemia): > 100 µM; TGI (SK-OV-3 ovarian): > 100 µM; TGI (ACHN renal): > 100 µM; TGI (HCT-116 colon): > 100 µM; TGI (SR leukemia): > 100 µM; TGI (786-0 renal): > 100 µM; TGI (SW-620 colon): > 100 µM; TGI (SK-MEL-5 melanoma): > 100 µM; TGI (SK-MEL-2 melanoma): > 100 µM; TGI (T-47D breast): > 100 µM; TGI (CAKI-1 renal): > 100 µM; TGI (CCRF-CEM leukemia): > 100 µM; TGI (MOLT-4 leukemia): > 100 µM; TGI (NCI-H460 lung): > 100 µM; TGI (SF-539 CNS): > 100 µM; TGI (NCI/ADR-RES ovarian): > 100 µM; TGI (UACC-257 melanoma): > 100 µM; TGI (OVCAR-4 ovarian): > 100 µM; TGI (HL-60(TB) leukemia): > 100 µM; TGI (SNB-19 CNS): > 100 µM; TGI (SNB-75 CNS): > 100 µM; TGI (M14 melanoma): > 100 µM; TGI (RXF 393 renal): > 100 µM; TGI (KM12 colon): > 100 µM; TGI (DU-145 prostate): > 100 µM; TGI (NCI-H522 lung): > 100 µM; TGI (IGROV1 ovarian): > 100 µM; TGI (MDA-MB-231 breast): > 100 µM; TGI (NCI-H226 lung): > 100 µM; TGI (OVCAR-8 ovarian): > 100 µM; TGI (SF-268 CNS): > 100 µM; TGI (OVCAR-3 ovarian): > 100 µM; TGI (LOX IMVI melanoma): > 100 µM; TGI (UO-31 renal): > 100 µM; TGI (A549 NSCLC): > 100 µM; TGI (MDA-N): > 100 µM; TGI (U251 CNS): > 100 µM; TGI (OVCAR-5 ovarian): > 100 µM; TGI (HCC-2998 colon): > 100 µM; TGI (COLO 205 colon): > 100 µM; TGI (SN12C renal): > 100 µM; TGI (MALME-3M melanoma): > 100 µM; TGI (HCT-15 colon): > 100 µM; TGI (SF-295 CNS): > 100 µM

Question: Which results are given for OC(COc1cccc2ccccc12)CN1CCOCC1 (stereo not drawn)?
Answer: TGI (PC-3 prostate): > 100 µM; TGI (EKVX NSCLC): > 100 µM; TGI (BT-549 breast): > 100 µM; TGI (NCI-H23 lung): > 100 µM; TGI (TK-10 renal): > 100 µM; TGI (SK-MEL-28 melanoma): > 100 µM; TGI (HOP-62 NSCLC): > 100 µM; TGI (RPMI-8226 leukemia): > 100 µM; TGI (MCF7 breast): > 100 µM; TGI (UACC-62 melanoma): > 100 µM; TGI (MDA-MB-435): > 100 µM; TGI (HOP-92 NSCLC): 98.9 µM; TGI (HT29 colon): > 100 µM; TGI (HS 578T breast): > 100 µM; TGI (A498 renal): > 100 µM; TGI (K-562 leukemia): > 100 µM; TGI (SK-OV-3 ovarian): > 100 µM; TGI (ACHN renal): > 100 µM; TGI (HCT-116 colon): > 100 µM; TGI (SR leukemia): > 100 µM; TGI (786-0 renal): > 100 µM; TGI (SW-620 colon): > 100 µM; TGI (SK-MEL-5 melanoma): > 100 µM; TGI (SK-MEL-2 melanoma): > 100 µM; TGI (T-47D breast): > 100 µM; TGI (CAKI-1 renal): > 100 µM; TGI (CCRF-CEM leukemia): > 100 µM; TGI (MOLT-4 leukemia): > 100 µM; TGI (NCI-H460 lung): > 100 µM; TGI (SF-539 CNS): > 100 µM; TGI (NCI/ADR-RES ovarian): > 100 µM; TGI (UACC-257 melanoma): > 100 µM; TGI (OVCAR-4 ovarian): > 100 µM; TGI (HL-60(TB) leukemia): > 100 µM; TGI (SNB-19 CNS): > 100 µM; TGI (SNB-75 CNS): > 100 µM; TGI (M14 melanoma): > 100 µM; TGI (RXF 393 renal): > 100 µM; TGI (KM12 colon): > 100 µM; TGI (DU-145 prostate): > 100 µM; TGI (NCI-H522 lung): > 100 µM; TGI (IGROV1 ovarian): > 100 µM; TGI (MDA-MB-231 breast): > 100 µM; TGI (NCI-H226 lung): > 100 µM; TGI (OVCAR-8 ovarian): > 100 µM; TGI (SF-268 CNS): > 100 µM; TGI (OVCAR-3 ovarian): > 100 µM; TGI (LOX IMVI melanoma): > 100 µM; TGI (UO-31 renal): > 100 µM; TGI (A549 NSCLC): > 100 µM; TGI (MDA-N): > 100 µM; TGI (U251 CNS): > 100 µM; TGI (OVCAR-5 ovarian): > 100 µM; TGI (HCC-2998 colon): > 100 µM; TGI (COLO 205 colon): > 100 µM; TGI (SN12C renal): > 100 µM; TGI (MALME-3M melanoma): > 100 µM; TGI (HCT-15 colon): > 100 µM; TGI (SF-295 CNS): > 100 µM

Reference: PubChem BioAssay (NCI)
